Values quoted from earlier work, collected in US6646013B1, “Nutrient formulations for disease reduction” (Nutri-Logics, priority 1999, dated 2003).
Like-named read-outs stand apart in the source and are kept apart here.

Columns and labels:
[1] = saturable absorption
[2] = system: mice; conditions: oral doses
[3] = system: rats; conditions: oral doses
[4] = animal fertility studies
[5] = circulation
[6] = not given; remark: listed apart in the source
[7] = system: colorectal cancer; conditions: meta-analysis of twenty-four studies, calcium intake
[8] = not given; remark: listed apart in the source
[9] = gastrointestinal side effects (distress, bloating)
[10] = system: colon carcinogenesis; conditions: rat colon model for carcinogenesis
[11] = system: colon cancer; conditions: patients with chronic ulcerative colitis
[12] = not given; remark: listed apart in the source
[13] = not given; remark: listed apart in the source
[14] = normal parathyroid function and vitamin D sensitivity
[15] = system: prostate cancer; conditions: vitamin E intake [37]
[16] = system: vitamin K activity; conditions: vitamin K-deficient patients
[17] = not given; remark: listed apart in the source

**Q.** For O=C1O[C@H]([C@@H](O)CO)C(O)=C1O [Ascorbate, ascorbic acid], which “concentration at which absorption is half-maximal” value [1] is on record?
**A.** The value was “about 1 mM”.

**Q.** For CC(=O)N[C@@H](CS)C(=O)O [NAC, N-Acetyl-l-cysteine], which “plasma half-life of free NAC” value (estimated) is on record?
**A.** The value was “about 2 hours”.

**Q.** What about the “time to peak plasma NAC concentration” value (oral administration) of the same compound?
**A.** Its value is “less than one”.

**Q.** What about the “bioavailability of the intact NAC molecule” value (oral, estimated) of the same compound?
**A.** The value was 4-10%.

**Q.** What about the “time post-administration at which virtually no NAC is detected” value (plasma) of the same compound?
**A.** The value was 10 to 12 h.

**Q.** What about the LD50 [2] of the same compound?
**A.** Its LD50 is 7888 mg/kg.

**Q.** And the LD50 [3]?
**A.** Its LD50 is “greater than 6000 mg/kg”.

**Q.** What about the “dose with no adverse effects reported” value [4] of the same compound?
**A.** The value was “up to 250 mg/kg”.

**Q.** What about the “dose with no teratogenic effects observed” value [4] of the same compound?
**A.** Its value is ≤ 2000 mg/kg.

**Q.** Which “share of circulating vitamin B6” value [5] does the source give for Cc1ncc(COP(=O)(O)O)c(C=O)c1O [Pyridoxal phosphate, pyridoxal 5′ phosphate] here?
**A.** Its value is “at least 60%”.

**Q.** For O=C(O)c1ccccc1O [Salicylate, salicylic acid], which “time to peak plasma concentrations” value ([6]; oral) is on record?
**A.** Its value is ≤ 2 h.

**Q.** And the “time to significant plasma concentrations” value ([6]; oral)?
**A.** Its value is ≤ 30 min.

**Q.** What about the “excreted in the urine as acyl glucuronide” value ([6]; urine) of the same compound?
**A.** The value was 5%.

**Q.** And the “excreted in the urine as free salicylic acid” value ([6]; urine)?
**A.** Its value is 10%.

**Q.** And the “excreted in the urine as salicylic phenolic glucuronide” value ([6]; urine)?
**A.** The value was 10%.

**Q.** What about the “excreted in the urine as salicyluric acid” value ([6]; urine) of the same compound?
**A.** Its value is 75%.

**Q.** Which “summary relative risk of colorectal cancer” value [7] does the source give for [Ca] [calcium] here?
**A.** Its value is 0.89 (0.79-1.01).

**Q.** And the “fraction complexed to anionic buffers” value ([8]; human plasma)?
**A.** Its value is “about 10%”.

**Q.** And the “fraction bound to plasma proteins” value ([8]; human plasma, primarily albumin)?
**A.** The value was “approximately 45%”.

**Q.** And the “fraction of filtered Ca2+ reabsorbed” value ([8]; kidney)?
**A.** The value was “approximately 98%”.

**Q.** What about the “supplement dose above which generally not well tolerated” value [9] of the same compound?
**A.** The value was “exceeding 800 mg per day”.

**Q.** Which “efficacy of pure form (>98%) versus food-grade curcumin” value [10] does the source give for COc1cc(/C=C/C(=O)CC(=O)/C=C/c2ccc(O)c(OC)c2)ccc1O [curcumin, (E,E)-1,7-Bis(4-hydroxy-3-methoxyphenyl)-1,6-heptadiene-3,5-dione] here?
**A.** Its value is “equally effective”.

**Q.** Which “lower incidence of colon cancer versus no supplementation” value [11] does the source give for Nc1nc2ncc(CNc3ccc(C(=O)N[C@@H](CCC(=O)O)C(=O)O)cc3)nc2c(=O)[nH]1 [folic acid, N-[**4-[**[**(2-Amino-1,4-dihydro-4-oxo-6-pteridinyl)methyl]amino]benzoyl]-L-glutamic Acid] here?
**A.** The value was 62%.

**Q.** What about the “dose with no adverse human effects” value ([12]; duration not stated) of the same compound?
**A.** Its value is 15 mg/day.

**Q.** And the “dose with no adverse human effects” value ([12]; for 4 months)?
**A.** The value was 10 mg/day.

**Q.** What does the source list for Cc1ncc(CO)c(CO)c1O [vitamin B6, pyridoxine]?
**A.** dose at which symptoms of dependency were noted ([13]; adults): 200 mg daily; dose at which neurotoxicity may develop ([13]; prolonged ingestion): 200 mg per day

**Q.** Which “continuous daily ingestion causing signs of hypervitaminosis” value [14] does the source give for C=C1CC[C@H](O)C/C1=C/C=C1\CCC[C@]2(C)[C@@H]([C@H](C)CCCC(C)C)CC[C@@H]12 [vitamin D, (3β,5Z,7E)-9,10-Secocholesta-5,7,10(19)-triene-3-ol] here?
**A.** Its value is ≥ 50,000 units daily.

**Q.** With Cc1c(C)c2c(c(C)c1O)CCC(C)(CCCC(C)CCCC(C)CCCC(C)C)O2 (stereo not shown) [vitamin E, 3,4-Dihydro-2,5,7,8-tetramethyl-2-(4,8,12-trimethyltridecyl)-2H-1-benzopyran-6-ol] as the compound, how does the “decrease in the incidence of prostate cancer” value [15] read?
**A.** Its value is 34%.

**Q.** What about the “prolonged daily intake after which bleeding is a concern” value [16] of the same compound?
**A.** The value was > 800 IU.

**Q.** For Cyanocobalamin [vitamin B12], which “share of the body's stores in the liver” value [17] is on record?
**A.** Its value is ≤ 90%.
